How the values were obtained:
Format in all cases: in vivo
[1] = system: Phakopsora pachyrhizi; assay: Test Example 5: test of effect on Phakopsora pachyrhizi on soybean, foliar spray; conditions: soybean (Natto shoryu), inoculated 14 days after spraying, lesion area of first trifoliate
Procedure: (§1) Based on the lesion areas in the treated plot and the non-treated plot, the effect of the treated plot was calculated according to the following formula (I). The results are shown in [Table 1]. Effect(%)=(1−(lesion area in treated plot)/(lesion area in non-treated plot))×100 formula (1)
(§2) Test of Effect on Phakopsora pachyrhizi
(§3) A plastic pot was stuffed with a soil, soybean (variety; Natto shoryu) was sown on this, and allowed to grow in a greenhouse until unfolding of the unifoliate. The present carboxamide compounds (2) and (3) and racemic N-(1,1,3-trimethylindan-4-yl)-1-methyl-3-difluoromethylpyrazole-4-carboxamide (hereinafter, referred to as racemic compound (B)) and racemic N-(1,1,3-trimethylindan-4-yl)-1,3,5-trimethylpyrazole-4-carboxamide (hereinafter, referred to as racemic compound (C)) were prepared into formulations according to Formulation Example 6, then, the formulations were diluted with water to attain a prescribed concentration, and sprayed to foliar part so as to satisfactorily adhere to the leaf surfaces of the soybean. The soybean was further cultivated at room temperature for 14 days, and grown until unfolding of the first trifoliate. The plant was inoculated with an aqueous suspension of Phakopsora pachyrhizi spores by spraying. After inoculation, the plant was allowed to stand under humid condition at 23° C. overnight, further, allowed to stand for 7 days at room temperature, then, the lesion area of the first trifoliate was checked.
Based on the lesion areas in the treated plot and the non-treated plot, the effect of the treated plot was calculated according to the above-described formula (I). The results are shown in [Table 2].

[2] = system: Mycosphaerella graminicola (Septoria tritici); assay: Test of effect of preventing Mycosphaerella graminicola (Septoria tritici) on wheat, foliar spray; conditions: 50 ppm foliar spray; wheat (Apogee); inoculated two days after spraying
Procedure: The control effect was evaluated by visually observing the area of a lesion on a test plant in investigation, and comparing the area of a lesion on a plant treated with a test composition and the area of a lesion on a non-treated plant.
Test of Effect of Preventing Mycosphaerella graminicola (Septoria tritici)
A plastic pot was stuffed with a soil, wheat (variety; Apogee) was sown on this, and allowed to grow in a greenhouse for 10 days. […] After spraying, the plant was air-dried, and two days after, inoculated with an aqueous suspension of Septoria tritici spores by spraying. After inoculation, the plant was first allowed to stand under humid condition at 18° C. for 3 days, further, allowed to stand for 14 to 18 days under illumination, then, the lesion area was checked. As a result, the lesion on the plant treated with the present carboxamide compounds (1), (2) and (3) was 10% or less of the lesion area on a non-treated plant.
The same test was carried out excepting the application concentration, using racemic N-(1,1,3-trimethylindan-4-yl)-1-methyl-3-trifluoromethylpyrazole-4-carboxylic amide (hereinafter, referred to as racemic compound (A)) instead of the present carboxamide compound. As a result, the lesion area on the plant treated with 50 ppm of the racemic compound (A) was 75% or more of the lesion area on a non-treated plant.

[3] = system: Phakopsora pachyrhizi; assay: Test Example 4: test of effect on Phakopsora pachyrhizi on soybean, foliar spray; conditions: 50 ppm; soybean (Natto shoryu); inoculated 14 days after spraying; lesion area of first trifoliate
Procedure: as §2
as §3, with “carboxamide” for “carboxamide compounds (2) and (3) and racemic N-(1,1,3-trimethylindan-4-yl)-1-methyl-3-difluoromethylpyrazole-4-carboxamide (hereinafter, referred to as racemic”, “compound (1) was” for “compound (B)) and racemic N-(1,1,3-trimethylindan-4-yl)-1,3,5-trimethylpyrazole-4-carboxamide (hereinafter, referred to as racemic compound (C)) were”, “cultivated in greenhouse” for “cultivated at room temperature”, “first trifolidate.” for “first trifoliate.”
as §1

Compound	Effect [%] ([1]; 200 ppm)	Effect [%] ([1]; 100 ppm)	also measured
CC1CC(C)(C)c2cccc(NC(=O)c3cn(C)nc3C(F)F)c21 (racemic) [Racemic compound (B), N-(1,1,3-trimethylindan-4-yl)-1-methyl-3-difluoromethylpyrazole-4-carboxamide, reference compound]	46.7%		
Cc1nn(C)c(C)c1C(=O)Nc1cccc2c1C(C)CC2(C)C (racemic) [Racemic compound (C), N-(1,1,3-trimethylindan-4-yl)-1,3,5-trimethylpyrazole-4-carboxamide, reference compound]	76.5%		
CC1CC(C)(C)c2cccc(NC(=O)c3cn(C)nc3C(F)(F)F)c21 (racemic) [racemic compound (A), N-(1,1,3-trimethylindan-4-yl)-1-methyl-3-trifluoromethylpyrazole-4-carboxylic amide]			lesion area on treated plant relative to lesion area on a non-treated plant [2]: ≥ 75%
C[C@@H]1CC(C)(C)c2cccc(NC(=O)c3cn(C)nc3C(F)(F)F)c21 [present carboxamide compound (1), (R)-(−)-N-(1,1,3-trimethylindan-4-yl)-1-methyl-3-trifluoromethylpyrazole-4-carboxamide]			Effect [%] [3]: 98.1%
C[C@@H]1CC(C)(C)c2cccc(NC(=O)c3cn(C)nc3C(F)F)c21 [present carboxamide compound (2), (R)-(−)-N-(1,1,3-trimethylindan-4-yl)-1-methyl-3-difluoromethylpyrazole-4-carboxamide]	100%	77.1%	
Cc1nn(C)c(C)c1C(=O)Nc1cccc2c1[C@H](C)CC2(C)C [present carboxamide compound (3), (R)-(−)-N-(1,1,3-trimethylindan-4-yl)-1,3,5-trimethylpyrazole-4-carboxamide]	100%	98.4%	

Reference: patent US8580836B2, “Plant disease control composition and method of controlling plant disease” (Sumitomo Chemical Company, Limited, priority 2010, dated 2013)
